Positions count from the first letter of the chain named. Names and notes keep the numbering of the source. Where a SMILES comes first, the peptide text is derived from it.
T1: AtGTR1 (Arabidopsis thaliana, UniProt Q944G5)
T1 construct: A library of Arabidopsis transporters available as full length cDNAs from the RIKEN bioresource center; expressed in transfected cells; host or cells: Xenopus oocytes injected with in vitro transcribed cRNA
T1 sequence (Q944G5 31-636 limits assumed): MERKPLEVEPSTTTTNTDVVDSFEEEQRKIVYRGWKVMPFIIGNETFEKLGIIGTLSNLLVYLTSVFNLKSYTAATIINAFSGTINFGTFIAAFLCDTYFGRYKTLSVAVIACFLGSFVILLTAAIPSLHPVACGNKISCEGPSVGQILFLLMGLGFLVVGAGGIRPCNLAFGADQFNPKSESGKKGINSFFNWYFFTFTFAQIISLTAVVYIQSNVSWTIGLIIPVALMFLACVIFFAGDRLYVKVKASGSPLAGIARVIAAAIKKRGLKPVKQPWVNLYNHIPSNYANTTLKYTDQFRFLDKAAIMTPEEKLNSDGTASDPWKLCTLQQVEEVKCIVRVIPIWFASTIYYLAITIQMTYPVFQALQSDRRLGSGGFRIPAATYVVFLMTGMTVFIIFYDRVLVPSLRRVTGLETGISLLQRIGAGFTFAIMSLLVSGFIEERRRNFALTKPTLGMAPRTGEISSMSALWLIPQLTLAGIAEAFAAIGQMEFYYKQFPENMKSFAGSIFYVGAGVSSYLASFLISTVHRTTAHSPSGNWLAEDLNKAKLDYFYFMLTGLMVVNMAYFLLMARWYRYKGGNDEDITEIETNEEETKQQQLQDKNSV

B1: GTR2 T58A: GTR2 of SEQ ID No: 4 with T at position 58 for A (protein, listed as Arabidopsis thaliana)
chain: MERKPLELESTDNHQNPSSAVYGGSVTAVDSVEEDVQNQKKVVYRGWKVMPFIIGNEAFEKLGIIGTLSNLLVYLTAVFNLKSITAATIINAFSGTINFGTFVAAFLCDTYFGRYKTLSVAVIACFLGSFVILLTAAVPQLHPAACGTAADSICNGPSGGQIAFLLMGLGFLVVGAGGIRPCNLAFGADQFNPKSESGKRGIDSFFNWYFFTFTFAQILSLTLVVYVQSNVSWTIGLTIPAVLMFLACLIFFAGDKLYVKIKASGSPLAGIAQVIAVAIKKRGLKPAKQPWLNLYNYYPPKYANSKLKYTDQFRFLDKAAILTPEDKLQPDGKPADPWKLCTMQQVEEVKCIVRVLPIWFASSIYYLTITQQMTYPVFQALQSDRRLGSGGFVIPAATYVVFLMTGMTVFIVVYDRVLVPTMRRITGLDTGITLLQRIGTGIFFATASLVVAGFVEERRRTFALTKPTLGMAPRKGEISSMSAMWLIPQLSLAGVAEAFAAIGQMEFYYKQFPENMRSFAGSIFYVGGGVSSYLGSFLIATVHRTTQNSSGGNWLAEDLNKGRLDLFYFMIAGILAVNFAYFLVMSRWYRYKGSDDEVTTYETNENIIKQQDKNVA
B2: GTR2 T58D: GTR2 of SEQ ID No: 4 with T at position 58 for D (protein, listed as Arabidopsis thaliana)
chain: B1 chain with A58D
B3: GTR1 S22A: GTR1 of SEQ ID NO: 2 with S at position 22 for A, mimicking dephosphorylation (protein, listed as Arabidopsis thaliana)
chain: T1 sequence (Q944G5 31-636 limits assumed) with S22A
B4: GTR1 S22D: GTR1 of SEQ ID NO: 2 with S at position 22 for D, mimicking phosphorylation (protein, listed as Arabidopsis thaliana)
chain: T1 sequence (Q944G5 31-636 limits assumed) with S22D

Biological target: T1, AtGTR1
Assay: Substrate-induced currents in voltage-clamped Xenopus oocytes expressing AtGTR1
Assay type: cell-based
Settings: 133 μM, pH 5, AtGTR1

Question: `CC(C)C[C@H](NC(=O)CN)C(=O)O` [gly-leu] was tested. Which currents on perfusion did it give?
Answer: The currents on perfusion was “did not result in any detectable currents”.

Question: Which currents on perfusion does the source give for `CC(NC(=O)C(N)CC(=O)O)C(=O)O` (stereo not drawn) [asp-ala] here?
Answer: Its currents on perfusion is “did not result in any detectable currents”.

Question: How did the currents on perfusion turn out when `NCC(=O)NCC(=O)NCC(=O)O` [gly-gly-gly] (H-Gly-Gly-Gly-OH) was run?
Answer: Its currents on perfusion is “did not result in any detectable currents”.

Question: With `C[C@H](N)C(=O)N[C@@H](Cc1cnc[nH]1)C(=O)O` [ala-his] (H-Ala-His-OH) as the molecule, how does the currents on perfusion read?
Answer: The currents on perfusion was “did not result in any detectable currents”.

Question: With `CSCC[C@H](N)C(=O)N[C@@H](C)C(=O)N[C@@H](CO)C(=O)O` [met-ala-ser] (H-Met-Ala-Ser-OH) as the molecule, how does the currents on perfusion read?
Answer: The currents on perfusion was “did not result in any detectable currents”.

Test system: Xenopus oocytes
Assay: 4-MTB import by phosphorylation/dephosphorylation mimicking GTR1 and GTR2 constructs in oocytes (LC-MS)
Assay type: cell-based
Settings: 100 μM 4-MTB, Kulori pH 5, one hour

Question: With B1 as the molecule, how does the 4-MTB transport activity read?
Answer: Its 4-MTB transport activity is “keeps the transport activity intact”.

Question: With B2 as the molecule, how does the 4-MTB transport activity read?
Answer: The 4-MTB transport activity was “inactivates the transport”.

Question: Which 4-MTB transport activity does the source give for B3 here?
Answer: The 4-MTB transport activity was “turns of f transport completely”.

Question: How did the 4-MTB transport activity turn out when B4 was run?
Answer: The 4-MTB transport activity was “keeps the import intact”.
